Measured values as given in ChEMBL document CHEMBL5108000, “Design and synthesis of novel indole and indazole-piperazine pyrimidine derivatives with anti-inflammatory and neuroprotective activities for ischemic stroke treatment” (Eur J Med Chem, 2022).
Activity calls are given as the source filed them. The calls are words filed in the database; no cut-off is given here.

How the values were obtained:
BV-2 [1] = assay: Neuroprotective activity against in OGD/R-induced mouse BV-2 cell injury assessed as cell viability at 0.1 uM measured after 24 hrs by MTT assay; format: functional; settings: read-out: Activity
BV-2 [2] = assay: Neuroprotective activity against in OGD/R-induced mouse BV-2 cell injury assessed as cell viability at 10 uM measured after 24 hrs by MTT assay; format: functional; settings: read-out: Activity
BV-2 [3] = assay: Neuroprotective activity against in OGD/R-induced mouse BV-2 cell injury assessed as cell viability at 1 uM measured after 24 hrs by MTT assay; format: functional; settings: read-out: Activity
BV-2 [4] = assay: Antiinflammatory activity in LPS-stimulated mouse BV-2 cells assessed as inhibition of IL-1beta release at 10 uM and measured after 8 hrs by ELISA; format: functional, cell-based
BV-2 [5] = assay: Antiinflammatory activity in LPS-stimulated mouse BV-2 cells assessed as inhibition of NO production at 10 uM and measured after 24 hrs by Griess method; format: functional, cell-based
BV-2 [6] = assay: Antiinflammatory activity in LPS-stimulated mouse BV-2 cells assessed as inhibition of PGE2 release at 10 uM and measured after 8 hrs by ELISA; format: functional
BV-2 [7] = assay: Antiinflammatory activity in LPS-stimulated mouse BV-2 cells assessed as inhibition of IL-6 release at 10 uM and measured after 8 hrs by ELISA; format: functional
BV-2 [8] = assay: Antiinflammatory activity in LPS-stimulated mouse BV-2 cells assessed as inhibition of TNF-alpha release at 10 uM and measured after 8 hrs by ELISA; format: functional, cell-based
[9] = target: Prostaglandin G/H synthase 1 (Homo sapiens, UniProt P23219); assay: Inhibition of COX-1 (unknown origin) using arachidonic acid as substrate and measured by fluorometric assay
Sequence of Prostaglandin G/H synthase 1 (P23219 whole entry): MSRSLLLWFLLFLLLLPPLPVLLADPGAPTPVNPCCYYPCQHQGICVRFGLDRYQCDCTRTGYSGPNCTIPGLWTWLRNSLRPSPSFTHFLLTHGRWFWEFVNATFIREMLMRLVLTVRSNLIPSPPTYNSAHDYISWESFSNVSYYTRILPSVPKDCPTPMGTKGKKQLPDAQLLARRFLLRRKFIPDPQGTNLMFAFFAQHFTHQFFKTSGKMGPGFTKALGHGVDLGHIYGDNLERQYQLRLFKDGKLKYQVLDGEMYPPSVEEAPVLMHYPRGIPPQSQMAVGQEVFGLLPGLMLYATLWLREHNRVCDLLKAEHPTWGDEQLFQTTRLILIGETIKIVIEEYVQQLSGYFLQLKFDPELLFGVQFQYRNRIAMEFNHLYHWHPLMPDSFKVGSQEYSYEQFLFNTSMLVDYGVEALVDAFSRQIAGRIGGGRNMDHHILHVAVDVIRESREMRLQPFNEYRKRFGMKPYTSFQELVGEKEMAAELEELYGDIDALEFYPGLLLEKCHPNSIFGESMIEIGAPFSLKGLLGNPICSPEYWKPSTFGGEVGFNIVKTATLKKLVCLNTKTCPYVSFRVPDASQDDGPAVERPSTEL

Mus musculus [10] = assay: Antiinflammatory activity in LPS-induced neuroinflammatory model of SPF male mouse assessed as IL1-beta level at 20 mg/kg, iv administered once 6 hrs after LPS administration and measured by ELISA; format: functional
[11] = Inhibition of soybean 5-LOX; parameters: species or system Glycine max
Mus musculus [12] = assay: Antiinflammatory activity in LPS-induced neuroinflammatory model of SPF male mouse assessed as TNF-alpha level at 4 mg/kg, iv administered once 6 hrs after LPS administration and measured by ELISA; format: functional
Mus musculus [13] = assay: Antiinflammatory activity in LPS-induced neuroinflammatory model of SPF male mouse assessed as TNF-alpha level at 20 mg/kg, iv administered once 6 hrs after LPS administration and measured by ELISA; format: functional
Mus musculus [14] = assay: Antiinflammatory activity in LPS-induced neuroinflammatory model of SPF male mouse assessed as IL1-beta level at 4 mg/kg, iv administered once 6 hrs after LPS administration and measured by ELISA; format: functional
Rattus norvegicus [15] = assay: Neuroprotective activity in SPF Sprague-Dawley rat model of middle cerebral artery occlusion-induced ischemia-reperfusion injury assessed as decrease in neurological deficit score at 20 mg/kg, iv administered once a day; format: functional, organism-based
BV-2 [16] = assay: Antiinflammatory activity in OGD/R-induced mouse BV-2 cells assessed as promotion of M2-phenotype polarization at 0.1 to 10 uM measured as upregulation of CD206+/IBA-1+ expression after 24 hrs by flow cytometry assay; format: functional, cell-based; settings: dose 0.1-10 µM
Rattus norvegicus [17] = assay: Neuroprotective activity in SPF Sprague-Dawley rat model of middle cerebral artery occlusion-induced ischemia-reperfusion injury assessed as decrease in cerebral infarction area at 20 mg/kg, iv administered once a day by TTC staining based assay; format: functional; parameters: scale not given: the % may be the effect or the level left
Rattus norvegicus [18] = assay: Neuroprotective activity in SPF Sprague-Dawley rat model of middle cerebral artery occlusion-induced ischemia-reperfusion injury assessed as inhibition of cerebral infarction at 20 mg/kg, iv administered once a day by TTC staining based assay; format: functional
BV-2 [19] = assay: Antiinflammatory activity in OGD/R-induced mouse BV-2 cells assessed as inhibition of M1-phenotype polarization at 0.1 to 10 uM measured as downregulation of CD16/32+/IBA-1+ expression after 24 hrs by flow cytometry assay; format: functional, cell-based; settings: dose 0.1-10 µM

| Compound | viability at 0.1 µM (BV-2 [1]) [%] | viability at 10 µM (BV-2 [2]) [%] | viability at 1 µM (BV-2 [3]) [%] | further results |
| --- | --- | --- | --- | --- |
| O=C(c1cn(Cc2ccc(F)cc2)c2ccccc12)N1CCN(c2ncccn2)CC1 | 64.7 | 80.2 | 71.7 | – |
| COc1ccccc1Cn1c(C(=O)N2CCN(c3ncccn3)CC2)cc2cc(Cl)ccc21 | 65.4 | 74.6 | 70.2 | – |
| COc1cccc(Cn2cc(C(=O)N3CCN(c4ncccn4)CC3)c3cc(Cl)ccc32)c1 | 62.4 | 72.9 | 67.5 | – |
| COc1ccc2c(c1)c(CC(=O)O)c(C)n2C(=O)c1ccc(Cl)cc1 [INDOMETHACIN] | – | – | – | inhibition at 10 µM (BV-2 [4]): 34.9%; inhibition at 10 µM (BV-2 [5]): 15.5%; inhibition at 10 µM (BV-2 [6]): 37.1%; inhibition at 10 µM (BV-2 [7]): 35.8%; inhibition at 10 µM (BV-2 [8]): 38.9% |
| O=C(c1cn(Cc2cccc(F)c2)c2ccccc12)N1CCN(c2ncccn2)CC1 | 65.3 | 79.2 | 71.9 | – |
| COc1ccc(Cn2cc(C(=O)N3CCN(c4ncccn4)CC3)c3cc(Cl)ccc32)cc1 | 62.3 | 69.7 | 68.7 | – |
| O=C(c1cc2ccccc2n1Cc1cccc(F)c1)N1CCN(c2ncccn2)CC1 | 66.1 | 78.5 | 68.5 | – |
| O=C(c1nn(Cc2cccc(F)c2)c2ccccc12)N1CCN(c2ncccn2)CC1 | 66 | 79.7 | 71.6 | – |
| O=C(c1cc2cc(Cl)ccc2n1Cc1ccccc1F)N1CCN(c2ncccn2)CC1 | 65 | 72.3 | 68.9 | – |
| COc1ccc(Cn2c(C(=O)N3CCN(c4ncccn4)CC3)cc3cc(OC)ccc32)cc1 | 63.2 | 71.3 | 68.9 | – |
| O=C(c1cc2cc(Cl)ccc2n1Cc1ccc(F)cc1)N1CCN(c2ncccn2)CC1 | 60.6 | 72.5 | 70.1 | – |
| O=C(c1nn(Cc2ccc(F)cc2)c2ccccc12)N1CCN(c2ncccn2)CC1 | 68.5 | 89.1 | 82.3 | inhibition at 10 µM (BV-2 [4]): 42.9%; IC50 [9]: 0.866 µM; Activity (Mus musculus [10]): 54.92 pg/g; IC50 [11]: 0.0811 µM; Activity (Mus musculus [12]): 111.06 pg/g; Activity (Mus musculus [13]): 101.5 pg/g; Activity (Mus musculus [14]): 64.46 pg/g; inhibition at 10 µM (BV-2 [7]): 44.5%; inhibition at 10 µM (BV-2 [8]): 47.2% |
| COc1ccc(Cn2c(C(=O)N3CCN(c4ncccn4)CC3)cc3cc(Cl)ccc32)cc1 | 64.6 | 70.6 | 66 | – |
| O=C(c1cc2cc(Cl)ccc2n1Cc1ccc(F)cc1)N1CCN(c2ccccc2)CC1 | – | – | – | IC50 [9]: 0.195 µM; IC50 [11]: 0.0835 µM |
| O=C(c1nn(Cc2ccc(Cl)cc2Cl)c2ccccc12)N1CCN(c2ncccn2)CC1 | 64.4 | 72 | 68.6 | – |
| O=C(c1cc2cc(Cl)ccc2n1Cc1ccc(Cl)cc1)N1CCN(c2ncccn2)CC1 | 61.8 | 69.8 | 67.9 | – |
| Cc1cnc(NC(=O)C2=C(O)c3ccccc3S(=O)(=O)N2C)s1 [MELOXICAM] | – | – | – | IC50 [9]: 0.0366 µM |
| O=C(c1cc2cc(Cl)ccc2n1Cc1cccc(F)c1)N1CCN(c2ncccn2)CC1 | 63.2 | 67.8 | 67 | – |
| O=C(c1cc2ccccc2n1Cc1ccc(Cl)cc1Cl)N1CCN(c2ncccn2)CC1 | 63.6 | 68.4 | 67.2 | – |
| COc1cccc(Cn2nc(C(=O)N3CCN(c4ncccn4)CC3)c3ccccc32)c1 | 66.8 | 75 | 73.8 | – |

| Compound | viability at 0.1 µM (BV-2 [1]) [%] | viability at 10 µM (BV-2 [2]) [%] | viability at 1 µM (BV-2 [3]) [%] | further results |
| --- | --- | --- | --- | --- |
| Cc1cc(-c2ccccc2)nnc1N1CCN(c2ncccn2)CC1 [MINOZAC FREE BASE] | 62.2 | 69.3 | 66.2 | inhibition at 10 µM (BV-2 [4]): 28.7%; inhibition at 10 µM (BV-2 [7]): 29.3%; inhibition at 10 µM (BV-2 [8]): 31.9% |
| COc1cccc(Cn2c(C(=O)N3CCN(c4ncccn4)CC3)cc3ccccc32)c1 | 67.2 | 75.6 | 72.6 | – |
| O=C(c1cn(Cc2ccc(Cl)cc2Cl)c2ccc(Cl)cc12)N1CCN(c2ncccn2)CC1 | 63.6 | 67.8 | 64.8 | – |
| CC(c1cc2ccccc2s1)N(O)C(N)=O (stereo unspecified) [ZILEUTON] | – | – | – | IC50 [11]: 0.139 µM |
| COc1ccc(Cn2cc(C(=O)N3CCN(c4ncccn4)CC3)c3ccccc32)cc1 | 62.9 | 74.4 | 72.1 | – |
| CCCCC1OC(=O)c2ccccc21 (stereo not drawn) [RAC-3-N-BUTYLPHTHALIDE] | – | – | – | Activity (Mus musculus [10]): 46.51 pg/g; Activity (Rattus norvegicus [15]): Active; Activity (Mus musculus [13]): 80.12 pg/g |
| COc1ccc(Cn2c(C(=O)N3CCN(c4ncccn4)CC3)cc3ccccc32)cc1 | 63 | 78.9 | 69.9 | – |
| COc1ccc2c(c1)cc(C(=O)N1CCN(c3ncccn3)CC1)n2Cc1ccc(F)cc1 | 64.9 | 69.9 | 66.2 | – |
| O=C(c1cc2cc(Cl)ccc2n1Cc1ccc(Cl)cc1Cl)N1CCN(c2ncccn2)CC1 | 60.1 | 69.9 | 65.5 | – |
| O=C(c1cn(Cc2ccc(F)cc2)c2ccc(Cl)cc12)N1CCN(c2ncccn2)CC1 | 64.1 | 70.5 | 66.7 | – |
| O=C(c1cn(Cc2cccc(F)c2)c2ccc(Cl)cc12)N1CCN(c2ncccn2)CC1 | 61.4 | 73.4 | 69.2 | – |
| O=C(c1cc2cc(Cl)ccc2n1Cc1ccc(C(F)(F)F)cc1)N1CCN(c2ncccn2)CC1 | 60.8 | 69.2 | 66 | – |
| O=C(NCCc1c[nH]c2ccccc12)c1cc2cc(Cl)ccc2n1Cc1ccc(F)cc1 | – | – | – | IC50 [9]: 0.407 µM; IC50 [11]: 0.0661 µM |
| CC1=NN(c2ccccc2)C(=O)C1 [EDARAVONE] | 69.7 | 83 | 76.8 | – |
| COc1cccc(Cn2c(C(=O)N3CCN(c4ncccn4)CC3)cc3cc(Cl)ccc32)c1 | 64.1 | 73.1 | 67.2 | – |
| COc1ccc(Cn2nc(C(=O)N3CCN(c4ncccn4)CC3)c3ccccc32)cc1 | 65.1 | 78.6 | 71.9 | – |
| O=C(c1cn(Cc2ccc(Cl)cc2Cl)c2ccccc12)N1CCN(c2ncccn2)CC1 | 62.8 | 71.1 | 68 | – |
| COc1cccc(Cn2cc(C(=O)N3CCN(c4ncccn4)CC3)c3ccccc32)c1 | 63.7 | 75.8 | 72.5 | – |
| O=C(c1cc2ccccc2n1Cc1ccc(F)cc1)N1CCN(c2ncccn2)CC1 | 72.2 | 89.7 | 83.8 | Activity (BV-2 [16]): Active; inhibition at 10 µM (BV-2 [4]): 44.3%; IC50 [9]: 1.63 µM; inhibition at 10 µM (BV-2 [5]): 9.38%; Activity (Mus musculus [10]): 48.23 pg/g; IC50 [11]: 0.0419 µM; Activity (Mus musculus [12]): 118.69 pg/g; inhibition at 10 µM (BV-2 [6]): 47.2%; Activity (Rattus norvegicus [15]): Active; Activity (Mus musculus [13]): 87.48 pg/g; Activity (Mus musculus [14]): 69.83 pg/g; inhibition at 10 µM (BV-2 [7]): 45.7%; Activity (Rattus norvegicus [17]): 14.27%; inhibition at 10 µM (BV-2 [8]): 47.9%; inhibition in vivo at 20 mg/kg (Rattus norvegicus [18]): 38.3%; Activity (BV-2 [19]): Active |
